Experimental data as given in US20250320228A1, “PYRIDO[3,2-D]PYRIMIDINES AS HPK1 INHIBITORS” (Merck Patent GmbH, priority 2022, published 2025).
Where two headings read alike, the source gives them in different places.

Tests used:
[1] = biological target: full-length human HPK1 (MAP4K1) (Homo sapiens (Human), UniProt Q92918); assay: HPK1 kinase assay (biochemical, ADP-Glo); details: read-out: HPK1 enzymatic IC50
Source text: HPK1 kinase assay (Biochemical assay).
A recombinant fusion protein consisting of full-length human HPK1 (MAP4K1) with an N-terminal Glutatione S-transferase (GST) tag was produced in insect cells Sf21 using the baculovirus expression system. GST-HPK1 protein was purified from cell lysates by glutathione Sepharose affinity chromatography. The assay is run in three continuous steps: 1) the HPK1 enzymatic kinase reaction, 2) an ATP depletion, and 3) the ADP detection, the steps 2 and 3 are performed with ADP-Glo™ Kinase Assay kit from Promega (V9101). Test compounds were prepared by 10-point serial dilution in dimethyl sulfoxide (DMSO) and 100 nL of each dilution was spotted onto a 384-well Optiplate (Perkin Elmer and Cat #6007299) by Labcyte Echo. 5 μL kinase reaction buffer (0.02% Brij-35, 2 mM DTT, 50 mM HEPES pH 7.5, MgCl2 10 mM, BSA 0.01% and β-glycerophosphate 12.5 mM) containing HPK1 (3.2 nM) enzyme was transferred to each well and incubated for 15 minutes at room temperature at 60% humidity. The enzymatic reaction was started by adding 5 μl of Start-Mix (10 μM ATP and 3.235 μM MBP). After 120 minutes, the reaction was stopped by adding 5 μL of ADP-Glo reagent (Promega, V9101) and incubating for 40 min. in the dark at 23° C. To determine the level of ADP, 10 μl ADP-Glo Detection solution was added and incubated for 1 hour at 23° C. in the dark. The plate was transferred to a Perkin Elmer EnVision (2104 Multilabel Reader) for luminescence detection and percent inhibition activity and IC50 value were determined using Genedata Screener.

[2] = system: HPK1 pSLP76 (Ser376); assay: Cellular assay phospho-SLP-76 (Ser376); type: cell-based, human; details: read-out: HPK1 pSLP76 IC50
Experimental: Cellular Assay—Phospho-SLP-76 (Ser376).
Inhibition of HPK1 enzymatic activity in cells was determined by detection of SLP76 phosphorylation at Ser376 residue in lysate from Jurkat (human) and EL-4 (mouse) cells. Jurkat and EL-4 cells express both HPK1 and SLP76 naturally. All cells were cultured in RPMI 1640 media containing 10% heat inactivated fetal bovine serum (FBS) and 1× Penicillin-Streptomycin. In either Jurkat or El-4 assay, cells were pre-incubated with test compounds prior to T cell stimulation by respective αCD3/αCD28 Dynabeads™. For detection, plates were read on the Envision and percent inhibition and IC50 were determined by Smart fit in Genedata Analyzer.
For Jurkat cells: 35 μL cell suspension were dispensed at a density of 30,000 cells/well in 384-well plates containing HBSS (Gibco, 14025076)+0.1% BSA). 10-point logarithmic serial dilution of test compounds in DMSO were prepared by a Hamilton automated liquid handling robot and 35 nL was transferred into each well by an Echo liquid handler. After 60 min. pre-incubation, the cells were stimulated by adding 5 μL human T activator αCD3/αCD28 Dynabeads™ (Gibco, 11132D) at 1.2×107 beads/ml for 15 minutes at 37° C. Detection of Ser376 phosphorylation status was accomplished by first adding 10 μL of 5× AlphaLISA lysis buffer (Perkin Elmer, ALSU-PSLP-A500) to each well of the cell plate using a Multidrop Combi (5840300), followed by 20 minutes shaking. 10 μL cell lysate from each treatment were then transferred to a white 384-well plate (Corning 3572) and incubated with AlphaLISA acceptor beads for one hour (AlphaLISA SureFire Ultra p-SLP76 (Ser376), Perkin Elmer, ALSU-PSLP-A500), and donor beads for additional 2 hours at room temperature in the dark. […]

[3] = GST-HPK1 3.2 nM, 10 μM ATP, MBP substrate, ADP-Glo
[4] = SLP76 Ser376 phosphorylation after αCD3/αCD28 stimulation, Jurkat (human) or EL-4 (mouse) cells, table does not say which

full-length human HPK1 (MAP4K1), sequence (Q92918 whole entry): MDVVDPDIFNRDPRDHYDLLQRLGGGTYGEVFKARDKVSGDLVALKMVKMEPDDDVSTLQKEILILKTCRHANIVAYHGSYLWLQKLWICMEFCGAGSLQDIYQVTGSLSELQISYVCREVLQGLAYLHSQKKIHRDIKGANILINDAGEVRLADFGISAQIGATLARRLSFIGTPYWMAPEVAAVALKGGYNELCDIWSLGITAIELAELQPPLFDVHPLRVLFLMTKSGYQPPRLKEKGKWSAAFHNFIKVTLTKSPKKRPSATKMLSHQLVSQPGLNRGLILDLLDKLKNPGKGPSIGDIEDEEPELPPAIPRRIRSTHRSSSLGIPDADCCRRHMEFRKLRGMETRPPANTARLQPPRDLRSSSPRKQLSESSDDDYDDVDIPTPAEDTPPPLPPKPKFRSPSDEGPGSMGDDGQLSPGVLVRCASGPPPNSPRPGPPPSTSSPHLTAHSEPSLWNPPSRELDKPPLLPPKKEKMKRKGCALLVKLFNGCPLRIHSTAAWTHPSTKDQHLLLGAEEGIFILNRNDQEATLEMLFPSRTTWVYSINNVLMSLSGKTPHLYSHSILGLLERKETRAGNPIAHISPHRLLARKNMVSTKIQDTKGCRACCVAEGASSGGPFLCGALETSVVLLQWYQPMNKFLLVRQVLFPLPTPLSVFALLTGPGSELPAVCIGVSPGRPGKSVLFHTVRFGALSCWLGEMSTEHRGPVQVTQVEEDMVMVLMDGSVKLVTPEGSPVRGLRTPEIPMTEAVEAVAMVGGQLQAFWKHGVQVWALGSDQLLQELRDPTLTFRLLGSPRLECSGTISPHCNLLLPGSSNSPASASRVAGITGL

IC50 [1, 3]	IC50 [2, 4]	Compound	IC50 [1]	IC50 ([2]; Homo sapiens, Jurkat)
< 0.1 µM	< 0.5 µM	NC(=O)c1cc(-c2cc(F)c(OCC3(O)CCOCC3)c(F)c2)nc2c(N[C@@H]3CNC[C@@H](F)C3)ncnc12 [Example 37, 6-(3,5-difluoro-4-((4-hydroxytetrahydro-2H-pyran-4-yl)methoxy)phenyl)-4-(((3S,5S)-5-fluoropiperidin-3-yl)amino)pyrido[3,2-d]pyrimidine-8-carboxamide]	–	–
< 0.1 µM	0.5 to 1 µM	NC(=O)c1cc(-c2cnn(C3CCOCC3)c2)nc2c(N[C@@H]3CNC[C@@H](F)C3)ncnc12 [Example 4, 4-(((3S,5S)-5-fluoropiperidin-3-yl)amino)-6-(1-(tetrahydro-2H-pyran-4-yl)-1H-pyrazol-4-yl)pyrido[3,2-d]pyrimidine-8-carboxamide]	–	–
< 0.1 µM	< 0.5 µM	CC(=O)c1ccc(-c2cc(C(N)=O)c3ncnc(N[C@@H]4CNC[C@@H](F)C4)c3n2)s1 [Example 5, 6-(5-acetylthiophen-2-yl)-4-(((3S,5S)-5-fluoropiperidin-3-yl)amino)pyrido[3,2-d]pyrimidine-8-carboxamide]	–	–
< 0.1 µM	< 0.5 µM	CC1(F)CN(Cc2ccc(-c3cc(C(N)=O)c4ncnc(N[C@H]5CCCNC5)c4n3)cc2)C1 [Example 56, (S)-6-(4-((3-fluoro-3-methylazetidin-1-yl)methyl)phenyl)-4-(piperidin-3-ylamino)pyrido[3,2-d]pyrimidine-8-carboxamide]	–	–
< 0.1 µM	0.5 to 1 µM	NC(=O)c1cc(-c2ccc(C3(O)COC3)cc2)nc2c(N[C@H]3CCCNC3)ncnc12 [Example 82, 6-[4-(3-hydroxyoxetan-3-yl)phenyl]-4-{[(3S)-piperidin-3-yl]amino}pyrido[3,2-d]pyrimidine-8-carboxamide]	–	–
< 0.1 µM	0.5 to 1 µM	NC(=O)c1cc(-c2ccc(OCC3(O)CCCC3)cc2)nc2c(N[C@@H]3CNC[C@@H](F)C3)ncnc12 [Example 35, 4-(((3S,5S)-5-fluoropiperidin-3-yl)amino)-6-(4-((1-hydroxycyclopentyl)methoxy)phenyl)pyrido[3,2-d]pyrimidine-8-carboxamide]	–	–
< 0.1 µM	> 1 µM	NC(=O)c1cc(-c2ccc(N3CCC(O)C3)nc2)nc2c(N[C@@H]3CNC[C@@H](F)C3)ncnc12 (stereo partly drawn) [Example 32, 4-(((3S,5S)-5-fluoropiperidin-3-yl)amino)-6-(6-(3-hydroxypyrrolidin-1-yl)pyridin-3-yl)pyrido[3,2-d]pyrimidine-8-carboxamide]	–	–
< 0.1 µM	0.5 to 1 µM	NC(=O)c1cc(C2=CCN(C(=O)C3CC3)CC2)nc2c(N[C@H]3CCCNC3)ncnc12 [Example 75, 6-(1-cyclopropanecarbonyl-1,2,3,6-tetrahydropyridin-4-yl)-4-{[(3S)-piperidin-3-yl]amino}pyrido[3,2-d]pyrimidine-8-carboxamide]	–	–
< 0.1 µM	< 0.5 µM	Cn1cc(-c2cc(C(N)=O)c3ncnc(N[C@@H]4CNC[C@@H](F)C4)c3n2)cc1C#N [Example 7, 6-(5-cyano-1-methyl-1H-pyrrol-3-yl)-4-{[(3S,5S)-5-fluoropiperidin-3-yl]amino}pyrido[3,2-d]pyrimidine-8-carboxamide]	–	–
< 0.1 µM	< 0.5 µM	NC(=O)c1cc(-c2cc(F)c(OCC3(O)CCC3)c(F)c2)nc2c(N[C@@H]3CNC[C@@H](F)C3)ncnc12 [Example 33, 6-(3,5-difluoro-4-((1-hydroxycyclobutyl)methoxy)phenyl)-4-(((3S,5S)-5-fluoropiperidin-3-yl)amino)pyrido[3,2-d]pyrimidine-8-carboxamide]	–	–
< 0.1 µM	< 0.5 µM	NC(=O)c1cc(-c2ccc(CN3CCOCC3)cc2)nc2c(N[C@H]3CCCNC3)ncnc12 [Example 30, 6-[4-(morpholin-4-ylmethyl)phenyl]-4-[(3S)-piperidin-3-ylamino]pyrido[3,2-d]pyrimidine-8-carboxamide]	–	–
–	–	NC(=O)c1cc(-c2ccc(O[C@H]3CN4CCC3CC4)cc2)nc2c(N[C@H]3CCCNC3)ncnc12 [Example 50, 4-(((S)-piperidin-3-yl)amino)-6-(4-(((R)-quinuclidin-3-yl)oxy)phenyl)pyrido[3,2-d]pyrimidine-8-carboxamide]	< 0.1 µM	> 1 µM
< 0.1 µM	< 0.5 µM	NC(=O)c1cc(-c2ccc(F)cc2)nc2c(N[C@H]3CCCNC3)ncnc12 [Example 76, 6-(4-fluorophenyl)-4-{[(3S)-piperidin-3-yl]amino}pyrido[3,2-d]pyrimidine-8-carboxamide]	–	–
< 0.1 µM	< 0.5 µM	COCCOc1ccc(-c2cc(C(N)=O)c3ncnc(N[C@H]4CCCNC4)c3n2)cc1 [Example 24, (S)-6-(4-(2-methoxyethoxy)phenyl)-4-(piperidin-3-ylamino) pyrido[3,2-d]pyrimidine-8-carboxamide]	–	–
< 0.1 µM	< 0.5 µM	CC(C)(O)COc1ccc(-c2cc(C(N)=O)c3ncnc(N[C@H]4CCCNC4)c3n2)cc1 [Example 62, 6-[4-(2-hydroxy-2-methylpropoxy)phenyl]-4-[(3S)-piperidin-3-ylamino]pyrido[3,2-d]pyrimidine-8-carboxamide]	–	–
–	–	NC(=O)c1cc(-c2ccc(OCC3(O)CC3)cc2)nc2c(N[C@@H]3CNC[C@@H](F)C3)ncnc12 [Example 34, 4-(((3S,5S)-5-fluoropiperidin-3-yl)amino)-6-(4-((1-hydroxycyclopropyl)methoxy)phenyl)pyrido[3,2-d]pyrimidine-8-carboxamide]	< 0.1 µM	< 0.5 µM
< 0.1 µM	< 0.5 µM	CCn1ncc(-c2cc(C(N)=O)c3ncnc(N[C@@H]4CNC[C@@H](F)C4)c3n2)c1C [Example 8, 6-(1-ethyl-5-methyl-1H-pyrazol-4-yl)-4-(((3S,5S)-5-fluoropiperidin-3-yl)amino)pyrido[3,2-d]pyrimidine-8-carboxamide]	–	–
< 0.1 µM	> 1 µM	COc1ccccc1-c1cc(C(N)=O)c2ncnc(N[C@H]3CCCNC3)c2n1 [Example 72, 6-(2-methoxyphenyl)-4-[(3S)-piperidin-3-ylamino]pyrido[3,2-d]pyrimidine-8-carboxamide]	–	–
< 0.1 µM	0.5 to 1 µM	N#Cc1ccccc1-c1cc(C(N)=O)c2ncnc(N[C@H]3CCCNC3)c2n1 [Example 86, 6-(2-cyanophenyl)-4-{[(3S)-piperidin-3-yl]amino}pyrido[3,2-d]pyrimidine-8-carboxamide]	–	–

Compound	IC50 [1, 3]	IC50 [2, 4]	IC50 [1]	IC50 ([2]; Homo sapiens, Jurkat)
NC(=O)c1cc(-c2ccc(CN3C4COCC3COC4)cc2)nc2c(N[C@H]3CCCNC3)ncnc12 [Example 64, 6-(4-[3,7-dioxa-9-azabicyclo [3.3.1]nonan-9-ylmethyl]phenyl)-4-[(3S)-piperidin-3-ylamino]pyrido[3,2-d]pyrimidine-8-carboxamide]	< 0.1 µM	< 0.5 µM	–	–
CC(C)(O)C(F)(F)Oc1ccc(-c2cc(C(N)=O)c3ncnc(N[C@H]4CCCNC4)c3n2)cc1 [Example 47, (S)-6-(4-(1,1-difluoro-2-hydroxy-2-methylpropoxy)phenyl)-4-(piperidin-3-ylamino)pyrido[3,2-d]pyrimidine-8-carboxamide]	< 0.1 µM	0.5 to 1 µM	–	–
CC(C)(O)COc1ccc(-c2cc(C(N)=O)c3ncnc(N[C@@H]4CNCC[C@@H]4F)c3n2)cc1 [Example 38, 4-(((3R,4S)-4-fluoropiperidin-3-yl)amino)-6-(4-(2-hydroxy-2-methylpropoxy)phenyl)pyrido[3,2-d]pyrimidine-8-carboxamide]	< 0.1 µM	< 0.5 µM	–	–
